What was measured:
Type in all cases: cell-based
mouse neutrophils [1] = assay: Rapid adhesion of mouse neutrophils to fibrinogen and ICAM-1; conditions: mean+/−SD
Source text: (§1) All data are expressed as the mean+/−SD of bound cells in 0.2 mm^2 from three independent experiments made in duplicate.

LFA-1 = LFA-1 affinity state in human neutrophils (conformer-specific antibodies, cytofluorimetry); conditions: 20 μM, 10 s, mean fluorescence intensity, ctrl = 1
Source text: Neutrophil arrest is rapidly triggered by chemokines or other chemoattractants and is mediated by the binding of LFA-1 integrin to its vascular ligand ICAM-1. Ligation of specific heterotrimeric GPCRs by chemokines induces integrins to undergo a dramatic transition from a bent low-affinity conformation to extended intermediate- and high-affinity conformations, which leads to opening of the ligand-binding pocket. We hypothesized that Aβ may trigger intermediate and/or high affinity state of LFA-1 integrin and studied the effect of Aβ1-42 oligomers on human LFA-1 affinity using KIM127 and 327A conformer-specific antibodies for intermediate- and high-affinity state respectively.
The cells were stimulated for 10 s with 0.5 μmol/L of CXCL12, 0.1 μM fMLP, 20 μM Aβ1-42, or 20 μM Aβ42-1 under stirring at 37° C. After rapid washing, cells were stained with FITC-conjugated secondary polyclonal antibody and analyzed by cytofluorimetric quantification. Data are mean fluorescence intensity +/−SD from three independent experiments.

human neutrophils [2] = assay: Isoluminol chemiluminescence ROS assay, human neutrophils; conditions: human neutrophils on fibrinogen, mean+/−SD
Description: One of the mechanisms of neuronal damage by beta-amyloid in Alzheimer's disease is the generation of reactive oxygen species (ROS). We determined whether Aβ1-42 oligomers induce ROS production in neutrophils by using a chemiluminescence assay.
(§2) Isoluminol-based chemiluminescence assays were performed in HGCa in the presence of horseradish peroxidase (HRP) and isoluminol (both from Sigma-Aldrich) in a temperature-controlled Multilabel Count Victor X5 (Perkin Elmer). Assays were run in dark 96 well plates precoated with 250 μg/ml human fibrinogen in HGCa containing (final concentration): 100 μM isoluminol and 8 U/ml HRP. After addition of 1×10^5 human neutrophils or 7.5×10^5 mouse neutrophils, plates were left at 37° C. for 5-10 min and the reaction started by addition of the stimulus. Light emission was recorded every minute.
(§3) We used the chemotactic peptide fMLP as positive control. […] Data are mean+/−SD for three independent experiments.

neutrophils = assay: Rapid adhesion of neutrophils, soluble versus fibrillary Aβ1-42; conditions: mean+/−SD
Source text: Although two-times less efficient than the soluble form, fibrillary Aβ triggered a significant increase of rapid neutrophil adhesion on both ICAM-1 and fibrinogen (Table 8; data are expressed as the mean+/−SD of bound cells in 0.2 mm^2 from three independent experiments made in duplicate).

mouse neutrophils [3] = assay: Isoluminol chemiluminescence ROS assay, mouse neutrophils; conditions: mean+/−SD
Description: as §2, §3
Data are mean+/−SD counts per second.

human neutrophils [4] = assay: Rapid adhesion of human neutrophils to fibrinogen and ICAM-1; conditions: mean+/−SD
Source text: as §1

Abeta 1-42: soluble oligomeric amyloid-beta 1-42 peptide used as stimulus
Rapid adhesion to Fibrinogen (mouse neutrophils [1]; 5 μM): 37.13 ± 3.25 bound cells in 0.2 mm^2 | Rapid adhesion to ICAM-1 (mouse neutrophils [1]; 5 μM): 149.9 ± 28 bound cells in 0.2 mm^2 | Rapid adhesion to Fibrinogen (mouse neutrophils [1]; 10 μM): 44.75 ± 3.68 bound cells in 0.2 mm^2 | Rapid adhesion to ICAM-1 (mouse neutrophils [1]; 10 μM): 201.9 ± 14.14 bound cells in 0.2 mm^2 | Rapid adhesion to Fibrinogen (mouse neutrophils [1]; 20 μM): 88.75 ± 7.72 bound cells in 0.2 mm^2 | Rapid adhesion to ICAM-1 (mouse neutrophils [1]; 20 μM): 285.3 ± 12.5 bound cells in 0.2 mm^2 | Rapid adhesion to Fibrinogen (mouse neutrophils [1]; Abeta 1 μM): 8 ± 2.42 bound cells in 0.2 mm^2 | Rapid adhesion to ICAM-1 (mouse neutrophils [1]; Abeta 1 μM): 27.42 ± 3.59 bound cells in 0.2 mm^2 | 327A (high-affinity state of LFA-1) (LFA-1): 3.29 ± 0.44 | KIM127 (intermediate-affinity state of LFA-1) (LFA-1): 2.54 ± 0.12 | ROS generation (chemiluminescence) (human neutrophils [2]; 1 min): 558 ± 112 | ROS generation (chemiluminescence) (human neutrophils [2]; 2 min): 540 ± 106 | ROS generation (chemiluminescence) (human neutrophils [2]; 3 min): 358 ± 132 | ROS generation (chemiluminescence) (human neutrophils [2]; 4 min): 235 ± 61 | ROS generation (chemiluminescence) (human neutrophils [2]; 5 min): 199 ± 76 | Rapid adhesion to Fibrinogen (neutrophils; 15 μM): 180.7 ± 30.7 bound cells in 0.2 mm^2 | Rapid adhesion to ICAM-1 (neutrophils; 15 μM): 480.7 ± 61.7 bound cells in 0.2 mm^2 | Rapid adhesion to Fibrinogen (neutrophils; 30 μM): 419.2 ± 30.7 bound cells in 0.2 mm^2 | Rapid adhesion to ICAM-1 (neutrophils; 30 μM): 738.5 ± 29.3 bound cells in 0.2 mm^2 | ROS generation (chemiluminescence) (mouse neutrophils [3]; 1 min): 226 ± 34 counts per second | ROS generation (chemiluminescence) (mouse neutrophils [3]; 2 min): 103 ± 17 counts per second | Rapid adhesion to Fibrinogen (human neutrophils [4]; 1 μM): 108.0 ± 26.1 bound cells in 0.2 mm^2 | Rapid adhesion to ICAM-1 (human neutrophils [4]; 1 μM): 156.5 ± 40.9 bound cells in 0.2 mm^2 | Rapid adhesion to Fibrinogen (human neutrophils [4]; 5 μM): 200.9 ± 48.7 bound cells in 0.2 mm^2 | Rapid adhesion to ICAM-1 (human neutrophils [4]; 5 μM): 184.0 ± 55.4 bound cells in 0.2 mm^2 | Rapid adhesion to Fibrinogen (human neutrophils [4]; 10 μM): 285.2 ± 38.9 bound cells in 0.2 mm^2 | Rapid adhesion to ICAM-1 (human neutrophils [4]; 10 μM): 229.2 ± 43.4 bound cells in 0.2 mm^2 | Rapid adhesion to Fibrinogen (human neutrophils [4]; 20 μM): 449.1 ± 34.0 bound cells in 0.2 mm^2 | Rapid adhesion to ICAM-1 (human neutrophils [4]; 20 μM): 281.0 ± 30.7 bound cells in 0.2 mm^2

Reference: patent US20210332139A1, “MODULATION OF LEUKOCYTE ACTIVITY IN TREATMENT OF NEUROINFLAMMATORY DEGENERATIVE DISEASE” (Leuvas Therapeutics, priority 2013, published 2021)
